Reference: patent publication US20260293898A1 (priority 2023, published 2026)

Columns and labels:
Pythium ultimum = Pythium ultimum / liquid culture (seedling damping off); type: cell-based; details: Globisporangium ultimum, read-out: control of Pythium ultimum
Plasmopara viticola = Plasmopara viticola / grape / leaf disc preventative; type: in vivo; details: 200 ppm, grape vine leaf disks, inoculated 1 day after application, 6-8 days after application, compared to untreated control
Phytophthora infestans = type: in vivo; details: 200 ppm; tomato leaf disks, preventative, inoculated 1 day after application; 5-7 days after application; compared to untreated control

COC(=O)Nc1ccc(-c2cnc3c(NC(C)=O)cc(C(=O)N(C)c4ccc(F)c(OC)c4)cn23)cn1 [X.20, methyl N-[5-[8-acetamido-6-[(4-fluoro-3-methoxy-phenyl)-methyl-carbamoyl]imidazo[1,2-a]pyridin-3-yl]-2-pyridyl]carbamate]
inhibition of growth at 20 ppm (Pythium ultimum): ≥ 80% | control of Plasmopara viticola (Plasmopara viticola): at least 80%

COCN(C(=O)c1ccc2ncc(-c3ccc(NC(=O)OC)nc3)n2c1)c1ccc(F)c(OC)c1 [X.04, methyl N-[5-[6-[(4-fluoro-3-methoxy-phenyl)-(methoxymethyl)carbamoyl]imidazo[1,2-a]pyridin-3-yl]-2-pyridyl]carbamate]
inhibition of growth at 20 ppm (Pythium ultimum): ≥ 80% | control of Plasmopara viticola (Plasmopara viticola): at least 80%

COCN(C(=O)c1cc(C)c2ncc(-c3ccc(NC(=O)OC)nc3)n2c1)c1ccc(F)c(OC)c1 [X.03, methyl N-[5-[6-[(4-fluoro-3-methoxy-phenyl)-(methoxymethyl)carbamoyl]-8-methyl-imidazo[1,2-a]pyridin-3-yl]-2-pyridyl]carbamate]
inhibition of growth at 20 ppm (Pythium ultimum): ≥ 80% | control of Plasmopara viticola (Plasmopara viticola): at least 80%

COC(=O)Nc1ccc(-c2cnc3c(C)cc(C(=O)N(C)c4ccc(F)cc4)cn23)cn1 [X.12, methyl N-[5-[6-[(4-fluorophenyl)-methyl-carbamoyl]-8-methyl-imidazo[1,2-a]pyridin-3-yl]-2-pyridyl]carbamate]
inhibition of growth at 20 ppm (Pythium ultimum): ≥ 80% | control of Plasmopara viticola (Plasmopara viticola): at least 80%

COc1cc(N(C)C(=O)c2ccc3ncc(-c4ccc(NC(=O)C5CC5)nc4)n3c2)ccc1F [X.06, 3-[6-(cyclopropanecarbonylamino)-3-pyridyl]-N-(4-fluoro-3-methoxy-phenyl)-N-methyl-imidazo[1,2-a]pyridine-6-carboxamide]
control of Phytophthora infestans (Phytophthora infestans): at least 80% | inhibition of growth at 20 ppm (Pythium ultimum): ≥ 80% | control of Plasmopara viticola (Plasmopara viticola): at least 80%

COC(=O)Nc1ccc(-c2cnc3cc(C)c(C(=O)N(C)c4ccc(F)cc4)cn23)cn1 [X.13, methyl N-[5-[6-[(4-fluorophenyl)-methyl-carbamoyl]-7-methyl-imidazo[1,2-a]pyridin-3-yl]-2-pyridyl]carbamate]
inhibition of growth at 20 ppm (Pythium ultimum): ≥ 80% | control of Plasmopara viticola (Plasmopara viticola): at least 80%

COCc1cc(C(=O)N(C)c2ccc(F)c(OC)c2)cn2c(-c3ccc(NC(=O)OC)nc3)cnc12 [X.21, methyl N-[5-[6-[(4-fluoro-3-methoxy-phenyl)-methyl-carbamoyl]-8-(methoxymethyl)imidazo[1,2-a]pyridin-3-yl]-2-pyridyl]carbamate]
control of Phytophthora infestans (Phytophthora infestans): at least 80% | inhibition of growth at 20 ppm (Pythium ultimum): ≥ 80% | control of Plasmopara viticola (Plasmopara viticola): at least 80%

COC(=O)Nc1ccc(-c2cnc3ccc(C(=O)N(CS(C)(=O)=O)c4ccc(F)c(OC)c4)cn23)cn1 [X.16, methyl N-[5-[6-[(4-fluoro-3-methoxy-phenyl)-(methylsulfonylmethyl)carbamoyl]imidazo[1,2-a]pyridin-3-yl]-2-pyridyl]carbamate]
inhibition of growth at 20 ppm (Pythium ultimum): ≥ 80%

COC(=O)Nc1ccc(-c2cnc3c(NC(C)=O)cc(C(=O)N(C)c4ccc(F)cc4)cn23)cn1 [X.18, methyl N-[5-[8-acetamido-6-[(4-fluorophenyl)-methyl-carbamoyl]imidazo[1,2-a]pyridin-3-yl]-2-pyridyl]carbamate]
inhibition of growth at 20 ppm (Pythium ultimum): ≥ 80% | control of Plasmopara viticola (Plasmopara viticola): at least 80%

COC(=O)Nc1ccc(-c2cnc3ccc(C(=O)N(C)c4ccc(F)c(OC)c4)cn23)cc1 [X.05, methyl N-[4-[6-[(4-fluoro-3-methoxy-phenyl)-methyl-carbamoyl]imidazo[1,2-a]pyridin-3-yl]phenyl]carbamate]
inhibition of growth at 20 ppm (Pythium ultimum): ≥ 80% | control of Plasmopara viticola (Plasmopara viticola): at least 80%

COC(=O)Nc1ccc(-c2cnc3c(C)cc(C(=O)N(C)c4ccc(C#N)c(OC)c4)cn23)cn1 [X.23, methyl N-[5-[6-[(4-cyano-3-methoxy-phenyl)-methyl-carbamoyl]-8-methyl-imidazo[1,2-a]pyridin-3-yl]-2-pyridyl]carbamate]
control of Phytophthora infestans (Phytophthora infestans): at least 80% | inhibition of growth at 20 ppm (Pythium ultimum): ≥ 80% | control of Plasmopara viticola (Plasmopara viticola): at least 80%

COC(=O)Nc1ccc(-c2cnc3ccc(C(=O)N(C)c4ccc(F)c(C)c4)cn23)cn1 [X.09, methyl N-[5-[6-[(4-fluoro-3-methyl-phenyl)-methyl-carbamoyl]imidazo[1,2-a]pyridin-3-yl]-2-pyridyl]carbamate]
inhibition of growth at 20 ppm (Pythium ultimum): ≥ 80% | control of Plasmopara viticola (Plasmopara viticola): at least 80%

COC(=O)Nc1ccc(-c2cnc3c(C)cc(C(=O)N(C)c4ccc(F)c(OC)c4)cn23)cn1 [X.02, methyl N-[5-[6-[(4-fluoro-3-methoxy-phenyl)-methyl-carbamoyl]-8-methyl-imidazo[1,2-a]pyridin-3-yl]-2-pyridyl]carbamate]
inhibition of growth at 20 ppm (Pythium ultimum): ≥ 80% | control of Plasmopara viticola (Plasmopara viticola): at least 80%

CCN(C(=O)c1ccc2ncc(-c3ccc(NC(=O)OC)nc3)n2c1)c1ccc(F)cc1 [X.19, methyl N-[5-[6-[ethyl-(4-fluorophenyl)carbamoyl]imidazo[1,2-a]pyridin-3-yl]-2-pyridyl]carbamate]
inhibition of growth at 20 ppm (Pythium ultimum): ≥ 80% | control of Plasmopara viticola (Plasmopara viticola): at least 80%

COC(=O)Nc1ccc(-c2cnc3ccc(C(=O)N(C)c4ccc(C#N)c(OC)c4)cn23)cn1 [X.10, methyl N-[5-[6-[(4-cyano-3-methoxy-phenyl)-methyl-carbamoyl]imidazo[1,2-a]pyridin-3-yl]-2-pyridyl]carbamate]
inhibition of growth at 20 ppm (Pythium ultimum): ≥ 80% | control of Plasmopara viticola (Plasmopara viticola): at least 80%

COC(=O)Nc1ccc(-c2cnc3ccc(C(=O)N(C)c4ccc(F)c(OC)c4)cn23)cn1 [X.01, methyl N-[5-[6-[(4-fluoro-3-methoxy-phenyl)-methyl-carbamoyl]imidazo[1,2-a]pyridin-3-yl]-2-pyridyl]carbamate]
inhibition of growth at 20 ppm (Pythium ultimum): ≥ 80% | control of Plasmopara viticola (Plasmopara viticola): at least 80%

COC(=O)Nc1ccc(-c2cnc3c(C)cc(C(=O)N(C)c4ccnc(OC)c4)cn23)cn1 [X.22, methyl N-[5-[6-[(2-methoxy-4-pyridyl)-methyl-carbamoyl]-8-methyl-imidazo[1,2-a]pyridin-3-yl]-2-pyridyl]carbamate]
control of Phytophthora infestans (Phytophthora infestans): at least 80% | inhibition of growth at 20 ppm (Pythium ultimum): ≥ 80% | control of Plasmopara viticola (Plasmopara viticola): at least 80%

COC(=O)Nc1ccc(-c2cnc3c(C)cc(C(=O)N(C)c4ccc(Cl)cc4)cn23)cc1 [X.08, methyl N-[4-[6-[(4-chlorophenyl)-methyl-carbamoyl]-8-methyl-imidazo[1,2-a]pyridin-3-yl]phenyl]carbamate]
inhibition of growth at 20 ppm (Pythium ultimum): ≥ 80% | control of Plasmopara viticola (Plasmopara viticola): at least 80%

COC(=O)Nc1ccc(-c2cnc3ccc(C(=O)N(C)c4ccc(Cl)c(OC)c4)cn23)cn1 [X.11, methyl N-[5-[6-[(4-chloro-3-methoxy-phenyl)-methyl-carbamoyl]imidazo[1,2-a]pyridin-3-yl]-2-pyridyl]carbamate]
inhibition of growth at 20 ppm (Pythium ultimum): ≥ 80% | control of Plasmopara viticola (Plasmopara viticola): at least 80%

COC(=O)Nc1ccc(-c2cnc3ccc(C(=O)N(CC#N)c4ccc(Cl)c(OC)c4)cn23)cn1 [X.15, methyl N-[5-[6-[(4-chloro-3-methoxy-phenyl)-(cyanomethyl)carbamoyl]imidazo[1,2-a]pyridin-3-yl]-2-pyridyl]carbamate]
inhibition of growth at 20 ppm (Pythium ultimum): ≥ 80% | control of Plasmopara viticola (Plasmopara viticola): at least 80%

COC(=O)Nc1ccc(-c2cnc3ccc(C(=O)N(CC#N)c4ccc(F)c(OC)c4)cn23)cn1 [X.14, methyl N-[5-[6-[cyanomethyl-(4-fluoro-3-methoxy-phenyl)carbamoyl]imidazo[1,2-a]pyridin-3-yl]-2-pyridyl]carbamate]
inhibition of growth at 20 ppm (Pythium ultimum): ≥ 80% | control of Plasmopara viticola (Plasmopara viticola): at least 80%

COC(=O)Nc1ccc(-c2cnc3ccc(C(=O)N(C)c4ccc(F)cc4)cn23)cc1 [X.07, methyl N-[4-[6-[(4-fluorophenyl)-methyl-carbamoyl]imidazo[1,2-a]pyridin-3-yl]phenyl]carbamate]
inhibition of growth at 20 ppm (Pythium ultimum): ≥ 80% | control of Plasmopara viticola (Plasmopara viticola): at least 80%

CONC(=O)Nc1ccc(-c2cnc3ccc(C(=O)N(C)c4ccc(F)c(OC)c4)cn23)cn1 [X.17]
inhibition of growth at 20 ppm (Pythium ultimum): ≥ 80%
